According to patent US20240139188A1, “Arylamide Compounds For Treatment And Prevention Of Fungal Infections” (priority 2022, published 2024):
≈ marks a conversion by molar mass, not a printed value. Where “and” joins values, the source holds several entries; their conditions need not be identical. Identical values can stand only once. Like-named read-outs stand apart in the source and are kept apart here.

Legend:
A. fumigatus [1] = experiment: MIC/MEC, CLSI M38-A2; assay type: cell-based, Aspergillus fumigatus; conditions: for MIC: Aspergillus fumigatus
[2] = test system: A. fumigatus conidia infecting A549 pulmonary cells; experiment: Killing assay in infected A549 cells; assay type: cell-based, Aspergillus fumigatus; conditions: monotherapy
Description: Killing assay: The type II pneumocyte cell line A549 was cultured using DMEM (ThermoFischer Scientific, Paisley. […] After 24 hours of incubation in 5% CO2 the culture media was removed, and 2 ml of sterile water was added to the wells. A P1000 tip was then used to scrape away the cell monolayer and the cell suspension was collected. This suspension was then diluted 1:1000 and 100 μl was plated on Sabouraud Dextrose Agar Media before the plates were incubated a 37° C. overnight. The numbers of CFUs were determined after 24 hours of growth. A volume of 50 μl of the inoculum adjusted to 103/ml was also plated on SAB agar to correct CFU counts. The CFU percentage for each sample was calculated and the results were plotted using Graphpad Prism (GraphPad Software, Inc., La Jolla, CA, USA).

C. neoformans = experiment: BRI+CAS against yeasts, XTT metabolic activity; conditions: CAS alone, 48 hours
C. albicans [3] = experiment: BRI+CAS against yeasts, XTT metabolic activity; conditions: absence of BRI
A. fumigatus [4] = experiment: Alamar blue metabolic activity assay; assay type: cell-based, Aspergillus fumigatus; conditions: ΔmpkA mutant, BRI 20 μM, 48 hours
Cryptococcus neoformans = experiment: In vitro susceptibility (MIC), macrobroth dilution; assay type: cell-based; conditions: Cryptococcus neoformans, C. neoformans CN9759, drug alone
Lomentospora prolificans = experiment: In vitro susceptibility (MIC), macrobroth dilution; assay type: cell-based
Mucorales Mucor species = experiment: In vitro susceptibility (MIC), macrobroth dilution; assay type: cell-based; conditions: Mucor
[5] = test system: Mucorales Unspeciated zygomycete; experiment: In vitro susceptibility (MIC), macrobroth dilution; assay type: cell-based; conditions: Mucorales Unspeciated zygomycete 07-140
Candida albicans = experiment: In vitro susceptibility (MIC), macrobroth dilution; assay type: cell-based; conditions: Candida albicans, C. albicans 5, drug alone
Candida auris = experiment: In vitro susceptibility (MIC), macrobroth dilution; assay type: cell-based; conditions: Candidozyma auris, Candida auris 20-253
Candida krusei = experiment: In vitro susceptibility (MIC), macrobroth dilution; assay type: cell-based; conditions: Pichia kudriavzevii, Candida krusei 03-287 (fluconazole-resistant)
Candida lusitaniae = experiment: In vitro susceptibility (MIC), macrobroth dilution; assay type: cell-based; conditions: Clavispora lusitaniae, Candida lusitaniae 22-16
Torulopsis glabrata = experiment: In vitro susceptibility (MIC), macrobroth dilution; assay type: cell-based; conditions: Nakaseomyces glabratus, Torulopsis glabrata 22-21
Acremonium species = experiment: In vitro susceptibility (MIC), macrobroth dilution; assay type: cell-based; conditions: Acremonium species 18-51
Exserohilum species = experiment: In vitro susceptibility (MIC), macrobroth dilution; assay type: cell-based; conditions: Exserohilum species 19-48
Aspergillus niger = experiment: In vitro susceptibility (MIC), macrobroth dilution; assay type: cell-based; conditions: Aspergillus niger 22-4
Aspergillus lentulus = experiment: In vitro susceptibility (MIC), macrobroth dilution; assay type: cell-based; conditions: Aspergillus lentulus 14-39
Aspergillus terreus = experiment: In vitro susceptibility (MIC), macrobroth dilution; assay type: cell-based; conditions: Aspergillus terreus 12-70
Aspergillus fumigatus = experiment: In vitro susceptibility (MIC), macrobroth dilution; assay type: cell-based; conditions: for MIC50 / MIC: Aspergillus fumigatus
[6] = test system: critical fungal pathogens; experiment: Checkerboard drug interaction testing (FICi), BRI with conventional antifungals; assay type: cell-based; conditions: organisms tested, with the exception of Aspergillus
C. albicans [7] = experiment: BRI+CAS against yeasts, colony forming units; conditions: plating after 48 hours
Description: (§1) Combination of Brilacidin and caspofungin against yeasts: For measuring the effect of the combination BRI+CAS against yeast fungal pathogens, two methods were used: (i) metabolic activity by XTT-assay and (ii) colony forming units (CFUs). For the first method, C. neoformans, C. albicans, and C. auris 10^4 cells were inoculated in RPMI-1640 supplemented with CAS 0 to 32 μg/ml (for C. neoformans) and 0 to 1 μg/ml (for Candida spp.) or the same concentrations of CAS combined with BRI 0.625 μM (for C. neoformans), BRI 20 μM (for C. albicans), and BRI 10 μM (for C. auris). […] XTT-assays were also used for C. albicans caspofungin resistant strains but with CAS 0.5 μg/ml combined with BRI 5, 10 or 20 μM. The same experimental design was used for the CFUs determination, except that after 48 hours the cells present in the wells were plated on YPD (yeast extract 10g, peptone 20g, dextrose 20g, agar 20 g, water 1000 mL) and the plates were incubated at 30° C. for 24-48 hours for determining the survival percentage.

C. auris = experiment: BRI+CAS against yeasts, colony forming units; conditions: plating after 48 hours
Description: as §1

[8] = lowest concentration causing 50% decrease in growth vs untreated control, read-out: MIC50
[9] = lowest concentration without growth, read-out: MIC100
[10] = read-out: 50% Inhibition BRI (MIC50)
[11] = read-out: 100% Inhibition BRI (MIC100)

Compound: CC[C@H](C)C[C@H](C)CCCCCCCCC(=O)N[C@H]1C[C@@H](O)[C@@H](NCCN)NC(=O)[C@@H]2[C@@H](O)CCN2C(=O)[C@H]([C@H](O)CCN)NC(=O)[C@H]([C@H](O)[C@@H](O)c2ccc(O)cc2)NC(=O)[C@@H]2C[C@@H](O)CN2C(=O)[C@H]([C@@H](C)O)NC1=O [CAS, caspofungin]
- MEC of CAS (A. fumigatus [1]; A. fumigatus): 0.2 µg/mL and 0.25 µg/mL
- MEC CAS (A. fumigatus [1]; A. fumigatus CM7555 CAS^R): 16 µg/mL
- MEC CAS (A. fumigatus [1]; A. fumigatus DPL1033 CAS^R): 16 µg/mL
- MEC CAS (A. fumigatus [1]; A. fumigatus MD24053 CAS^R): 16 µg/mL
- MEC CAS (A. fumigatus [1]; A. fumigatus WT): 0.25 µg/mL
- MEC CAS (A. fumigatus [1]; A. fumigatus clinical isolates susceptible to CAS): 0.25 µg/mL
- MEC CAS (A. fumigatus [1]; CAS-resistant clinical strains DPL1033, MD24053, CM7555): 16 µg/mL
- A. fumigatus killing [2]: 25%
- CAS concentration that completely inhibits metabolic activity (XTT) (C. neoformans): 32 µg/mL
- CAS concentration for complete inhibition of metabolic activity (XTT) and survival (CFUs) (C. albicans [3]): ~0.125 µg/mL

Compound: N=C(N)NCCCCC(=O)Nc1cc(C(F)(F)F)cc(NC(=O)c2cc(C(=O)Nc3cc(C(F)(F)F)cc(NC(=O)CCCCNC(=N)N)c3OC3CCNC3)ncn2)c1OC1CCNC1 (stereo not drawn) [BRI, brilacidin]
- metabolic activity (Alamar blue) in presence vs absence of BRI (A. fumigatus [4]): significantly decreased metabolic activity
- MIC (A. fumigatus [1]; A. fumigatus CM7555 CAS^R, read-out: MIC BRI): > 80 µM
- MIC (A. fumigatus [1]; A. fumigatus DPL1033 CAS^R, read-out: MIC BRI): > 80 µM
- MIC (A. fumigatus [1]; A. fumigatus MD24053 CAS^R, read-out: MIC BRI): > 80 µM
- MIC (A. fumigatus [1]; A. fumigatus VOR^R clinical isolate named in c0 of the row, read-out: MIC BRI): 80 µM (≈ 75 µg/mL)
- MIC (A. fumigatus [1]; A. fumigatus WT (CEA17), read-out: MIC BRI): 80 µM (≈ 75 µg/mL)
- MIC (A. fumigatus [1]; A. fumigatus WT, read-out: MIC BRI): > 80 µM
- MIC (A. fumigatus [1]; A. fumigatus clinical isolate named in c0 of the row, read-out: MIC BRI): > 80 µM
- MIC (A. fumigatus [1]; wild-type A. fumigatus, read-out: BRI MIC): > 80 µM
- MIC50 (Cryptococcus neoformans; [8]): 1 µg/mL (≈ 1.07 µM)
- MIC (Cryptococcus neoformans; [9]): 8 µg/mL (≈ 8.54 µM)
- MIC50 (Lomentospora prolificans; [10]): 4 µg/mL (≈ 4.27 µM)
- MIC (Lomentospora prolificans; [11]): 8 µg/mL (≈ 8.54 µM)
- MIC50 (Mucorales Mucor species; Mucor sp. 13-127, drug alone, lowest concentration causing 50% decrease in growth vs untreated control, read-out: MIC50): 4 µg/mL (≈ 4.27 µM)
- MIC (Mucorales Mucor species; Mucor sp. 13-127, drug alone, lowest concentration without growth, read-out: MIC100): 64 µg/mL (≈ 68.3 µM)
- MIC (Mucorales Mucor species; Mucorales Mucor species, read-out: 100% Inhibition BRI (MIC100)): 32 µg/mL (≈ 34.2 µM)
- MIC50 [5, 10]: 2 µg/mL (≈ 2.13 µM)
- MIC [5, 11]: 16 µg/mL (≈ 17.1 µM)
- MIC50 (Candida albicans; [8]): 4 µg/mL (≈ 4.27 µM)
- MIC (Candida albicans; [9]): > 64 µg/mL
- MIC50 (Candida auris; [10]): > 64 µg/mL
- MIC (Candida auris; [11]): > 64 µg/mL
- MIC50 (Candida krusei; [10]): 8 µg/mL (≈ 8.54 µM)
- MIC (Candida krusei; [11]): 16 µg/mL (≈ 17.1 µM)
- MIC50 (Candida lusitaniae; [10]): 8 µg/mL (≈ 8.54 µM)
- MIC (Candida lusitaniae; [11]): 8 µg/mL (≈ 8.54 µM)
- MIC50 (Torulopsis glabrata; [10]): 64 µg/mL (≈ 68.3 µM)
- MIC (Torulopsis glabrata; [11]): > 64 µg/mL
- MIC50 (Acremonium species; [10]): 4 µg/mL (≈ 4.27 µM)
- MIC (Acremonium species; [11]): > 64 µg/mL
- MIC50 (Exserohilum species; [10]): 1 µg/mL (≈ 1.07 µM)
- MIC (Exserohilum species; [11]): 16 µg/mL (≈ 17.1 µM)
- MIC50 (Aspergillus niger; [10]): 8 µg/mL (≈ 8.54 µM)
- MIC (Aspergillus niger; [11]): 16 µg/mL (≈ 17.1 µM)
- MIC50 (Aspergillus lentulus; [10]): 32 µg/mL (≈ 34.2 µM)
- MIC (Aspergillus lentulus; [11]): > 64 µg/mL
- MIC50 (Aspergillus terreus; [10]): > 64 µg/mL
- MIC (Aspergillus terreus; [11]): > 64 µg/mL
- MIC100 (Aspergillus fumigatus; A. fumigatus 21-23, drug alone, lowest concentration without growth): >64 µg/mL
- MIC50 (Aspergillus fumigatus; A. fumigatus 10AF, drug alone, lowest concentration causing 50% decrease in growth vs untreated control, read-out: MIC50): 64 µg/mL (≈ 68.3 µM)
- MIC50 (Aspergillus fumigatus; A. fumigatus 21-23, drug alone, lowest concentration causing 50% decrease in growth vs untreated control, read-out: MIC50): 64 µg/mL (≈ 68.3 µM)
- MIC (Aspergillus fumigatus; A. fumigatus 10AF, drug alone, lowest concentration without growth, read-out: MIC100): > 64 µg/mL
- MIC50 (Aspergillus fumigatus; [10]): > 64 µg/mL
- MIC (Aspergillus fumigatus; [11]): > 64 µg/mL
- in vitro activity of BRI alone [6]: favorable in vitro activity
- Mechanism (C. albicans [7]; Candida albicans DPL1006 CAS^R): Fungicidal
- Mechanism (C. albicans [7]; Candida albicans DPL1007 CAS^R): Fungicidal
- Mechanism (C. albicans [7]; Candida albicans DPL1009 CAS^R): Fungicidal
- Mechanism (C. albicans [7]; Candida albicans DPL1010 CAS^R): Fungicidal
- Mechanism (C. albicans [7]; Candida albicans DPL1011 CAS^R): Fungicidal
- Mechanism (C. albicans [7]; Candida albicans SC5314): Fungicidal
- Mechanism (C. auris; Candida auris 467/2015): Fungicidal
- Mechanism (C. auris; Candida auris 468/2015): Fungicidal
- Mechanism (C. auris; Candida auris 469/2015): Fungicidal
- Mechanism (C. auris; Candida auris 470/2015): Fungicidal
- Mechanism (C. auris; Candida auris 471/2015): Fungicidal
